# In patent US11111500B2, “Mutated protoporphyrinogen IX oxidase (PPX) genes” (CIBUS US LLC, priority 2010, dated 2021):
# Tested on: potato protoplasts (protoplast derived microcalli)
# Assay: Flumioxazin kill curve with cell suspension and shoot tip-derived protoplasts
# Format: cell-based
# Conditions: for # Of calli in 3 beads, # / # Of calli in 3 beads, %: Non treated protoplast + PEG; for # Of calli in 3 beads, # / # Of calli in 3 beads, % / # of calli in 3 beads, # / # of calli in 3 beads, %: one month; for # Of calli in 3 beads, % / # of calli in 3 beads, %: % of average control; for # of calli in 3 beads, # / # of calli in 3 beads, %: Stop-GFP + Correcting GRON
# Procedure: Herbicide selection experiments were performed to determine the concentration of herbicide necessary to kill protoplast derived microcalli in a defined treatment period. […] The herbicide was suspended in DMSO, with the final concentration of DMSO in the herbicide treatments being 1%. Development of cells was evaluated under the microscope once a week. […] A flumioxazin concentration of 0.032 mM is sufficient to prevent microcallus development from potato protoplasts.
# About 200 shoot tips of 2-8 week-old in vitro shoots that have been cultured under a regular day/night regime, or, preferably were kept for two days before protoplast isolation in the dark, shoots may be cut into small pieces with a scalpel in a petri dish with sterile water. After all tips have been cut, the water is replaced with protoplast culture medium, preferably BN (B5 Salts and Vitamins (Phytotechnology Laboratories), glucose 20 g/L, mannitol 70 g/L, alpha naphthalene acetic acid 5 mg/L, additional CaCl2×2H2O 600 mg/L, casein hydrolysate 250 mg/L, cystcine-HCL 10 mg/L, polyvinylpyrrolidone (MW 10,000) 5 g/L. After approximately 1-2 h, the protoplast culture medium is replaced with enzyme solution, for example consisting of medium BN, in which 0.5% (w/v) Cellulase YC and 0.75% (w/v) Maccrozyme R10 (both from Karlan Research Products, Cottonwood, Ariz.), 1 g/L bovine serum albumin, and 1 g/L 2-morpholinoethanesulfonic acid are dissolved. The ratio of the number of shoot tips over the volume of enzyme solution can be between 10 and 16, preferably 13. The dish with shoot tip pieces in enzyme solution is incubated for at 25° C.-30° C., preferably 28° C., in darkness on a shaker set to about 50 rpm. After overnight incubation the protoplast suspension is purified using an iodixanol density gradient (adapted from Optiprep Application Sheet C18; Purification of Intact Plant Protoplasts; Axis-Shield USA, 10 Commerce Way, Norton, Mass. 02776). After the density gradient centrifugation, the band with purified protoplasts is removed together with about 5 mL W5 medium (Frigerio et al., 1998). The protoplast density and yield are determined with a hemocytometer. The protoplasts density is adjusted to 1×10^6/mL in BN medium containing 2 mg/L 2,6-dichlorobenzonitrile (cellulose synthase inhibitor), and the protoplasts are cultured in darkness at 30° C. for about 16 h.
# 1. Fast growing cell suspensions are used, preferably three days after their last subculture. 1.5 mL settled cell volume is transferred to about 15 ml BN medium, which after 2 h is replaced with enzyme solution. 2. The protoplast purification is followed immediately by the GRON/PEG treatment.
# The protoplast suspension is mixed with an equal volume of W5 medium, transferred to a 50 mL centrifuge tube, and centrifuged for 10 min at the lowest setting of a clinical centrifuge (about 50×g). The supernatant is removed and replaced with TM medium (Klaus, S. Markerfreie transplastome Tabakpflanzen (Marker-free transplastomic tobacco plants). PhD Dissertation, 2002, Ludwig-Maximilians-Universitát Múnchen, 109 pp), adjusting the protoplast density to 5×10^6/mL. Aliquots of 100 μL containing 5×10^5 protoplasts each are distributed into 12 mL round bottom centrifuge tubes. GRONs (such as those shown in Table 14) targeted at one or more mutations in one or both of the mitochondrial and plastidal PPX genes are then introduced into the protoplasts using a PEG treatment. To introduce the GRONs into the protoplasts, 12.5 μg GRON dissolved in 25 μL purified water and 125 μL of a polyethylene glycol solution (5 g PEG MW 1500, 638 mg mannitol, 207 mg CaNO3×4H2O and 8.75 mL purified water; pH adjusted to about 9.0) is added. After a 10-30 min incubation on ice, the protoplast-PEG suspension is washed with W5 medium and resuspended in medium BN. The suspension is kept overnight in darkness at room temperature.
# One day after the GRON introduction, protoplasts are embedded in calcium alginate. […]
smiles,measurement,setting,value
C#CCN1C(=O)COc2cc(F)c(N3C(=O)C4=C(CCCC4)C3=O)cc21 [flumioxazin],concentration sufficient to prevent microcallus development from potato protoplasts,,0.032 mM
same,"# Of calli in 3 beads, #",flumioxazin 0.0156 μM,40
same,"# Of calli in 3 beads, %",flumioxazin 0.0156 μM,25%
same,"# Of calli in 3 beads, #",flumioxazin 0.0312 μM,8
same,"# Of calli in 3 beads, %",flumioxazin 0.0312 μM,5%
same,"# Of calli in 3 beads, #",flumioxazin 0.0468 μM,0.0
same,"# Of calli in 3 beads, %",flumioxazin 0.0468 μM,0.0%
same,"# Of calli in 3 beads, #",flumioxazin 0.0624 μM,0
same,"# Of calli in 3 beads, %",flumioxazin 0.0624 μM,0%
same,"# of calli in 3 beads, #",flumioxazin 0.0156 μM,83
same,"# of calli in 3 beads, %",flumioxazin 0.0156 μM,39%
same,"# of calli in 3 beads, #",flumioxazin 0.0312 μM,11
same,"# of calli in 3 beads, %",flumioxazin 0.0312 μM,4%
same,"# of calli in 3 beads, #",flumioxazin 0.0468 μM,0.0
same,"# of calli in 3 beads, %",flumioxazin 0.0468 μM,0.0%
same,"# of calli in 3 beads, #",flumioxazin 0.0624 μM,0
same,"# of calli in 3 beads, %",flumioxazin 0.0624 μM,0%
same,microcalli development after one month,"any concentration tested, 1% DMSO",no microcalli developed at any concentration tested
same,concentration sufficient to kill all cells within a week,initial kill curve,125 µM
